Data reported in patent US10624895B2, “Methods of sensitizing a patient with glioma to a therapeutic agent by administering small hairpin RNA targeting PDZ-RHOGEF” (THE TRANSLATIONAL GENOMICS RESEARCH INSTITUTE, priority 2016, dated 2020).

Tests used:
NF-κB = test: Immunoblot of NF-κB activation after PPF; assay type: cell-based, human; details: T98G and GBM43 cells treated with PPF
Method: FIGS. 26A, 26B, and 26C depict that PPF sensitizes GBM cells to TMZ and radiotherapy. FIG. 26A—A clonogenic assay was used to assess T98G and GBM43 cells survival after TMZ and radiation treatment. Cells were pre-treated with 5 μM PPF for 24 hours, and then either treated with 250 μM TMZ for 24 hours or exposed to 2 Gy radiation. Graph depicts the surviving fraction in the treated cells compared to vehicle (VC) treated or non-treated (NT) cells, **p<0.01. FIG. 26B—T98G glioma cells were treated with vehicle, PPF (5 μM) TMZ (250 μM) and PPF in combination with TMZ. TMZ-induced apoptosis was assayed by immunoblot analysis of cell lysates with an antibody to cleaved PARP. Immunoblotting for α-Tubulin was included as a loading control. FIG. 26C—T98G, GBM10, and GBM43 cells were treated with PPF ([…], and then immunoblotted to assess the activation of AKT and NF-κB. Immunoblotting for β-Actin is included as a loading control.
Referring now to FIGS. 26A, 26B, and 26C: Knockdown of TROY expression with shRNA decreases TMZ resistance in GBM cells in vitro (See Reference 42). […] Following combination therapy, cells were trypsinized, counted, and plated in a 6-well culture dish at densities of 100, 250, and 500 cells per well in triplicate. Cells were incubated for 12 days then fixed, stained with 0.5% crystal violet solution, and counted manually by blinded observers. […]

[1] = system: T98G, GBM10, and GBM43 cells; test: Cell proliferation by automated cell counting; assay type: cell-based, human; details: 5, 50, 500 μM PPF, up to 144 hours
Method: FIG. 25A—T98G, GBM43, and GBM10 cells were incubated with increasing concentrations of PPF (0, 5, 50, and 500 After 0, 48, 96 and 144 hours of treatment, cell were trypsinized and counted using an automated cell counter. FIG. 25B—GBM43, GBM10, and T98G glioma cells were treated with increasing doses of PPF (0.5, 1, 5, 10, and 20 μM) in triplicate. The CellTiterGlo® (Promega) reagent was used to measure survival. Raw values were normalized on a plate-by-plate basis such that 100% cell viability was equivalent to the mean of vehicle wells and 0% cell viability was equivalent to the mean of the MG132 positive control. The normalized data was used to assess viability of glioma cells after PPF treatment.
Referring now to FIGS. 25A and 25B: To determine if PPF influences glioma cell proliferation, the inventors treated T98G, GBM10, and GBM43 cells with increasing concentrations of PPF and evaluated cell proliferation over the course of 144 hours. Briefly, 1.25×10^5 cells were seeded (n=3) in 12-well plates in 1 mL of DMEM supplemented with 10% FBS and allowed to attach at 37° C. for 16 hrs. […] After 0, 48, 96 and 144 hours of treatment, the cells were trypsinized and counted using the automated cell counter. […] Subsequently, 100 μL of CellTiterGlo® reagent was added to each well and luminescence was measured using Envision Reader. […]

Compound: CCCn1cnc2c1c(=O)n(CCCCC(C)=O)c(=O)n2C [PPF, 3-methyl-1-(5-oxohexyl)-7-propyl-3,7-dihydro-1H-purine-2,6-dione]
- NF-κB phosphorylation (NF-κB): effectively decreased
- glioma cell proliferation [1]: did not affect the proliferation
